The text below walks through data of ChEMBL document CHEMBL3132846 (Medchemcomm, 2014).

A short description of data set [1]: Cytotoxicity against human BGC823 cells after 48 hrs by MTT assay. As to conditions: BGC-823, 48 h. The format is functional, cell-based.
In the next data set the test system is MCF7. Description: Cytotoxicity against human MCF7 cells after 48 hrs by MTT assay. The format is functional, cell-based. As to conditions: MCF7, 48 h.
Another data set deals with SiHa. Briefly: Cytotoxicity against human SiHa cells after 48 hrs by MTT assay. The format is functional, cell-based. (In general: Tetrazolium assays rely on reduction of a dye to a coloured formazan, in cell work by metabolically active cells.)
The test system of data set [2] is CCRF S-180. Description: Antitumor activity against mouse S180 cells allografted in ICR mouse assessed as tumor growth inhibition at 30 mg/kg, ig qd administered for 6 days relative to vehicle-treated control. The data set is classed as functional. As to conditions: CCRF S-180, po, 144 h, route intragastric, read-out: TGI.
The subject of the next data set is HeLa. Description: Cytotoxicity against human HeLa cells after 48 hrs by MTT assay. The format is functional, cell-based.
For the next data set, the system named is A549. Description: Cytotoxicity against human A549 cells after 48 hrs by MTT assay. The data set is classed as functional, cell-based. Particulars: A549, 48 h.
A further data set relates to HL-60. Briefly: Cytotoxicity against human HL60 cells after 48 hrs by MTT assay. The format is functional, cell-based. Particulars: HL-60, 48 h.
Another data set has as its system Ishikawa. Briefly: Cytotoxicity against human Ishikawa cells after 48 hrs by MTT assay. The format is functional, cell-based.
The next data set concerns BeWo. Briefly: Cytotoxicity against human Bewo cells after 48 hrs by MTT assay. The data set is classed as functional, cell-based.
Data set [3] relates to HUVEC. Briefly: Cytotoxicity against HUVEC assessed as mitochondrial metabolism after 48 hrs by MTT assay. The data set is classed as cell-based, Homo sapiens. As to conditions: for IC50: Homo sapiens, HUVEC; for Activity: human, huvec.
A short description of data set [4]: Cytotoxicity against human NCI-460 cells after 48 hrs by MTT assay. The data set is classed as functional, cell-based. As to conditions: NCI-460, 48 h.
The nature of data set [5]: Cytotoxicity against human Bel7402 cells after 48 hrs by MTT assay. The format is functional, cell-based. As to conditions: Bel-7402, 48 h.
A further data set deals with Mus musculus. Description: Toxicity in ICR mouse allografted with mouse S180 cells assessed as body weight loss at 200 mg/kg, ig qd administered for 6 days relative to vehicle-treated control. As to conditions: in vivo, po, 144 h. The data set is classed as organism-based, CCRF S-180. The arrangement: dose 200 mg/kg, route intragastric.
Data set [6] deals with HUVEC. Briefly: Antiangiogenic activity against HUVEC assessed as inhibition of cell migration at 10 ug/ml after 24 hrs by wound healing assay relative to control. The format is functional. Particulars: Homo sapiens.
Data set [7] has as its system HUVEC. Description: Antiangiogenic activity against HUVEC assessed as inhibition of cell migration at 2.5 ug/ml after 24 hrs by wound healing assay relative to control. The data set is classed as functional. As to conditions: Homo sapiens.
Data set [8] deals with CCRF S-180. Description: Antitumor activity against mouse S180 cells allografted in ICR mouse assessed as tumor growth inhibition at 200 mg/kg, ig qd administered for 6 days relative to vehicle-treated control. As to conditions: CCRF S-180, po, 144 h, route intragastric, read-out: TGI. The data set is classed as functional.
For data set [9], the system named is HUVEC. Briefly: Antiangiogenic activity against HUVEC assessed as inhibition of tube formation at 12.5 ug/ml after 24 hrs relative to control. The format is functional, cell-based. As to conditions: Homo sapiens.

Activity calls are given as the source filed them. The calls are words filed in the database; no cut-off is given here.

The IC50 is the concentration needed to halve the response being measured. For `Cc1ccc2c(=O)c3cccc(CC(=O)O)c3oc2c1C` [VADIMEZAN], the IC50 (in data set [1]; in the data set with MCF7; in the data set on SiHa; with HeLa; in the data set on A549; with HL-60) was above 100 µM in each case. The IC50 is above 100 µM in the data set with Ishikawa; above 100 µM in the data set on BeWo; above 20 µM in the data set with HUVEC [3]; above 100 µM in data set [4]; above 100 µM in [5]. The inhibition in vivo at 30 mg/kg in the data set with CCRF S-180 [2] is 76.2%.
What is called inhibition is the relative decrease from the control value, in per cent. `Cc1ccc2c(=O)c3cccc(CC(=O)Nc4cccc(Cl)c4)c3oc2c1C`: the Activity in the data set on Mus musculus was 10.7%; with HUVEC [3], “Dose-dependent effect”. Also, the IC50 in the data set with MCF7 is above 100 µM; in the data set on SiHa it was 36.1 µM; with HeLa, 25.4 µM; in the data set on A549, 10.8 µM; in the data set with HL-60, 91.2 µM; with Ishikawa, above 100 µM. Also, the half-maximal inhibitory concentration (IC50) with BeWo turned out to be 66.5 µM; in the data set with HUVEC [3] it was 11.1 µM. In addition, the inhibition at 10 µg/mL in the data set on HUVEC [6] turned out to be 58.2%. Besides, the inhibition at 2.5 µg/mL in the data set with HUVEC [7] worked out at 32.6%. Further, the inhibition in vivo at 200 mg/kg with CCRF S-180 [8] was found to be 22.4%.
`Cc1ccc2c(=O)c3cccc(CC(=O)Nc4ccc(Cl)cc4)c3oc2c1C`: the Activity in the data set with Mus musculus is 12.37%; in the data set with HUVEC [3], “Dose-dependent effect”. The half-inhibitory concentration (IC50) with MCF7 was above 100 µM; with SiHa, 46.6 µM; in the data set with HeLa, above 100 µM; in the data set with A549, 9.39 µM; in the data set on HL-60 it was 67.6 µM; in the data set with Ishikawa, above 100 µM. Besides, the half-inhibitory concentration (IC50) in the data set on BeWo came to 32 µM; in the data set with HUVEC [3], 6.87 µM. In the data set on HUVEC [6], the inhibition at 10 µg/mL was 65.8%. Further, the inhibition at 2.5 µg/mL with HUVEC [7] was determined as 45.6%. The inhibition in vivo at 200 mg/kg in the data set with CCRF S-180 [8] turned out to be 27.8%. Further, the outcome in the data set with HUVEC [9] was Active.
As to `Cc1ccc2c(=O)c3cccc(CC(=O)Nc4ccc(Cl)c(Cl)c4)c3oc2c1C`, the Activity is on record as 12.87% in the data set on Mus musculus and “Dose-dependent effect” in the data set on HUVEC [3]. Besides, the half-inhibitory concentration (IC50) with MCF7 is above 100 µM; with SiHa, 96.1 µM; with HeLa, 18.7 µM; in the data set with A549 it was 92 µM; in the data set on HL-60, 42.4 µM; with Ishikawa, above 100 µM. For the same molecule, the IC50 in the data set on BeWo is above 100 µM; in the data set on HUVEC [3], 6.4 µM. For the same molecule, the inhibition at 10 µg/mL in the data set on HUVEC [6] came out at 89.7%. The inhibition at 2.5 µg/mL in the data set with HUVEC [7] is 67.6%. Further, the inhibition in vivo at 200 mg/kg with CCRF S-180 [8] was 29.6%. Also, in the data set with HUVEC [9], the result was Active.
